One assay has as its target T1, human 5-HT1A receptor (Homo sapiens, UniProt P08908).
T1 construct: expressed in transfected cells
T1 sequence (P08908 1-422): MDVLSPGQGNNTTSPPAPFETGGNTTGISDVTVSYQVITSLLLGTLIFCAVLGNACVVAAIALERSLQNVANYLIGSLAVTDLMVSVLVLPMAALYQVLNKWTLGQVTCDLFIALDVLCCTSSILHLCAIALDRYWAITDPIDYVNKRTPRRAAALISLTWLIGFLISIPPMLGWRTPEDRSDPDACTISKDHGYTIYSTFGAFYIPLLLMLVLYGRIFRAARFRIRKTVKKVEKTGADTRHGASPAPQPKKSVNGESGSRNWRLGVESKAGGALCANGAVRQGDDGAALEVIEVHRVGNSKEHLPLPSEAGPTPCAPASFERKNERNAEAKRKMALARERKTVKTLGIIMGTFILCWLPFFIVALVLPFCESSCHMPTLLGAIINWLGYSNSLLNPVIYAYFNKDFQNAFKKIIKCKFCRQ
The assay can be described thus: 5-HT1A receptor binding ([3H]8-OH-DPAT, 5-HT1A.CHO cell membranes). The conditions noted are these: for inhibition at 1 µM / inhibition at 0.01 µM: 0.5 h; for inhibition at 1 µM: read-out: 5-HT1A % @1000 nM; for inhibition at 0.01 µM: read-out: 5-HT1A % @10 nM. How it is done: (§1) The PCR cloning of the human 5-HT1A receptor subtype from a human genomic library has been described previously Chanda et al., Mol. Pharmacol., 43:516 (1993). A stable Chinese hamster ovary cell line expressing the human 5-HT1A receptor subtype (5-HT1A.CHO cells) was employed throughout this study. Cells were maintained in DMEM supplemented with 10% foetal calf serum, non-essential amino acids and penicillin/streptomycin.
Cells were grown to 95-100% confluency as a monolayer before membranes were harvested for binding studies. Cells were gently scraped from the culture plates, transferred to centrifuge tubes, and washed twice by centrifugation (2000 rpm for 10 min., 4° C.) in buffer (50 mM Tris; pH 7.5). The resulting pellets were aliquoted and placed at -80° C. On the day of assay, the cells were thawed on ice, and resuspended in buffer. Studies were conducted using [^3 H]8-OH-DPAT as the radioligand. The binding assay was performed in 96 well microtiter plates in a final total volume of 250 μL of buffer. Competition experiments were performed by using 7 concentrations of unlabelled drug and a final ligand concentration of 1.5 nM . Non-specific binding was determined in the presence of 10 μM 5HT. Saturation analysis was conducted by using [^3 H]8-OH-DPAT at concentrations ranging from 0.3-30 nM. Following a 30 minute incubation at room temperature, the reaction was terminated by the addition of ice cold buffer and rapid filtration using a M-96 Brandel Cell Harvester (Gaithersburg, Md.) through a GF/B filter presoaked for 30 minutes in 0.5% polyethyleneimine.

In the next assay the target is T2, 5-HT1A cloned receptor (Homo sapiens, UniProt P08908).
T2 construct: expressed in transfected cells
T2 sequence (P08908 1-422): T1 sequence (P08908 1-422)
The experiment in a line: [35S]-GTPγS binding assay, 5-HT1A cloned receptor membranes. The assay is classed as biochemical. The settings on record: maximum agonist response defined by excess 8-OH-DPAT.
Description: as §1
The [^35 S]-GTPγS binding assay was similar to that used by Lazareno and Birdsall, Br. J. Pharmacol. 109:1120 (1993). Briefly, 5-HT1A cloned receptor membrane fragments (as used for 5-HT1A receptor binding assays) were stored at -70° C. until needed. When needed, membranes were rapidly thawed, centrifuged at 40,000×g for 10 minutes and resuspended at 4° C. for 10 minutes in assay buffer ([…], 3 mM MgCl2, 100 mM NaCl, 1 mM EDTA, 10 uM GDP, […], pH 8.0). These membranes were then incubated for 30 min at 30° C. with [^35 S]GTPgS (1 nM) in the presence of vehicle, test compound (one to eight concentrations), or excess 8-OH-DPAT to define maximum agonist response. All reactions are terminated by the addition of ice cold Tris buffer followed by rapid filtration using a Tom Tech® filtration device to separate bound from free [^35 S]GTPgS. […] Bound radioactivity was counted and analyzed as above.

A further assay has as its target T3, serotonin transporter (Rattus norvegicus, UniProt P31652).
T3 construct: frontal cortical membranes prepared from male Sprague-Dawley rats; from tissue; host or cells: frontal cortical membranes of male Sprague-Dawley rats
The experiment in a line: serotonin transporter (ST) affinity, 3H-paroxetine binding in frontal cortical membranes. Set-up: species or system male Sprague-Dawley rats. How it is done:
Briefly, frontal cortical membranes prepared from male Sprague-Dawley rats were incubated with ^3 H-paroxetine (0.1 nM) for 60 min at 25° C. All tubes also contained either vehicle, test compound (one to eight concentrations), or a saturating concentration of fluoxetine (10 μM) to define […]. All reactions are terminated by the addition of ice cold Tris buffer followed by rapid filtration using a Tom Tech filtration device to separate bound from free ^3 H-paroxetine.

From patent publication US6110956A, “N-aryloxyethylamine derivatives for the treatment of depression” (American Home Products Corp., priority 1999, dated 2000) come the findings set out here.

pKi: −log10 of the molar value. Like-named read-outs stand apart in the source and are kept apart here.

In general, pKi refers to −log10 of the Ki, conventionally taken in molar units. In general, Emax refers to the size of the effect at its maximum, as opposed to the concentration needed.

T3 sequence (P31652 whole entry): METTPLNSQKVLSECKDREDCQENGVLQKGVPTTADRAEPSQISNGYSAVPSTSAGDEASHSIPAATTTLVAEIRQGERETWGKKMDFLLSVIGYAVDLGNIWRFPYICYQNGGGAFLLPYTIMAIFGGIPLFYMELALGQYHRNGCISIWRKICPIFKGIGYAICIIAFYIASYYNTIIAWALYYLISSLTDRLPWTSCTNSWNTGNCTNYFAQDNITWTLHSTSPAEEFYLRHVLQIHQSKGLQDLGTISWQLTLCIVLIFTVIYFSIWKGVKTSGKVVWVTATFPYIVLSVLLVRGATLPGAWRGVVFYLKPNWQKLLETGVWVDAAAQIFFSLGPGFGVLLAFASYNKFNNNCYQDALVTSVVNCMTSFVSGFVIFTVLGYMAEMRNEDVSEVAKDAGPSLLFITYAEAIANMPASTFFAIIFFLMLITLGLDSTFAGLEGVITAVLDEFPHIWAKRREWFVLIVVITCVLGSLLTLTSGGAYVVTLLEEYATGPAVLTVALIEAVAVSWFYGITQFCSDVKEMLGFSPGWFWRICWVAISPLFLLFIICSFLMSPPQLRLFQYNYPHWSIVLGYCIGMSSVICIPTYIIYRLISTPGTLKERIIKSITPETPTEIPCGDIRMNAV

With `N#Cc1ccc2[nH]cc([C@H]3CC[C@@H](NCCOc4cc(F)cc5c4OCC5)CC3)c2c1` [Example 6a], the inhibition at 1 µM at human 5-HT1A receptor came out at 49%.
Take `COc1cc(F)ccc1OCCN[C@H]1CC[C@@H](c2c[nH]c3ccc(F)cc32)CC1` [Example 9a, [(1,4-cis)-4-(5-Fluoro-1H-indol-3-yl)-cyclohexyl]-[2-(4-fluoro-2-methoxy-phenoxy)-ethyl]-amine]: the inhibition at 0.01 µM at human 5-HT1A receptor was 16%.
Consider `OC1(CNCCOc2cccc3[nH]ccc23)CCC(c2c[nH]c3ccc(F)cc23)CC1` (centres unmarked) [Example 13, (1,4)-4-(5-Fluoro-1H-indol-3-yl)-1-{[2-(1H-indol-4-yloxy)-ethylamino]-methyl}-cyclohexanol], for which the pKi at human 5-HT1A receptor ([3H]8-OH-DPAT 1.5 nM, 30 minutes, room temperature, read-out: 5-HT1A (Ki)) is 6.59.
Turning to `Cn1cc([C@H]2CC[C@@H](NCCOc3cc(F)cc4c3OCCC4)CC2)c2cc(C#N)ccc21` [Example 5c, 3-{(1,4-cis)-4-[2-(6-Fluoro-chroman-8-yloxy)-ethylamino]-cyclohexyl}-1-methyl-1H-indole-5-carbonitrile], the inhibition at 1 µM at human 5-HT1A receptor is 47%.
Consider `COc1ccccc1OCCNC[C@H]1CC[C@H](c2c[nH]c3ccc(F)cc32)CC1` [Example 10a, [(1,4-trans)-4-(5-Fluoro-1H-indol-3-yl)-cyclohexylmethyl]-[2-(2-methoxy-phenoxy)-ethyl]-amine], for which the values for the pKi on human 5-HT1A receptor and at serotonin transporter were 7.57 and 8.13, respectively. The compound further had an Emax on 5-HT1A cloned receptor of 60%.
For `COc1ccccc1OCCNCC1CCC(c2c[nH]c3ccc(C#N)cc23)CC1` (centres unmarked) [Example 10b, 3-(4-{[2-(Methoxy-phenoxy)-ethylamino]-methyl}-cyclohexyl)-1H-indole-5-carbonitrile], the inhibition at 0.01 µM at human 5-HT1A receptor stood at 7%.
Take `Fc1cc2c(c(OCCN[C@H]3CC[C@@H](c4c[nH]c5ccc(F)cc54)CC3)c1)OCCC2` [Example 5a, [2-(6-Fluoro-chroman-8-yloxy)-ethyl]-[(1,4-cis)-4-(5-fluoro-1H-indol-3-yl)-cyclohexyl]-amine]: the inhibition at 1 µM on human 5-HT1A receptor was determined as 49%.
For `COc1cc(F)c(F)cc1OCCN[C@H]1CC[C@@H](c2c[nH]c3ccc(F)cc32)CC1` [Example 11a, (1,4-cis)-[2-(4,5-Difluoro-2-methoxy-phenoxy)-ethyl]-[4-(5-fluoro-1H-indol-3-yl)-cyclohexyl]-amine], the inhibition at 0.01 µM at human 5-HT1A receptor was 0%.
Turning to `COc1cc(S(C)(=O)=O)c(F)cc1OCCN[C@H]1CC[C@H](c2c[nH]c3ccc(F)cc32)CC1` [Example 12, [(1,4-trans)-4-(5-Fluoro-1H-indol-3-yl)-cyclohexyl]-[2-(5-fluoro-4-methanesulfonyl-2-methoxy-phenoxy)-ethyl]-amine], the inhibition at 0.01 µM on human 5-HT1A receptor was determined as 0%.
